Reference: patent US11980594B2, “Composition and method for treating a drug-resistant cancer” (NOVELWISE PHARMACEUTICAL CORPORATION, priority 2021, dated 2024)
Where “and” joins values, the source holds several entries; their conditions need not be identical. Identical values can stand only once.

Tests used:
[1] = test system: RKO cells; assay: Annexin V/PI flow cytometric analysis of apoptosis, RKO; type: cell-based, human; details: BMX, 48 hrs
Description: (§1) Apoptosis induction in different doses of BMX (0-10 μM) in the presence or absence of TMZ (50 μM) was assayed by the detection of membrane externalization of phosphatidylserine with the with the CF®488A Annexin V and PI Apoptosis Kit (Fremont, Calif., USA) following the manufacturer's instructions. All samples were then immediately analyzed by flow cytometry.

[2] = test system: U87MG-R cells; assay: Flow cytometric analysis of the DNA cell cycle, U87MG-R; type: cell-based, human; details: 10 μM BMX alone, 48 hrs
Description: (§2) For the DNA cell cycle, following treatment with different doses of BMX (0-10 μM) in the presence or absence of TMZ (50 μM) for 48 hrs, the cells were harvested through trypsinization, washed twice with phosphate-buffered saline, and fixed in methanol. The cells were then washed again, subjected to RNase A at a final concentration of 0.05 mg/mL (Sigma-Aldrich; Merck Millipore, Darmstadt, Germany), and incubated with 10 μg/mL propidium iodide (PI; Sigma-Aldrich; Merck Millipore) at 4° C. for 15 min in the dark. Cell cycle analysis was conducted using a fluorescence-activated cell sorting (FACS) flow cytometer (Attune NxT flow cytometer, Thermo Fisher Scientific).

[3] = test system: HCT116 cells; assay: Annexin V/PI flow cytometric analysis of apoptosis, HCT116; type: cell-based, human; details: BMX, 48 hrs
Description: as §1

[4] = statement from literature [22]; cited from earlier work
[5] = target: T1, HDAC8 (Homo sapiens, UniProt Q9BY41); details: statement from literature [22]; cited from earlier work
T1 sequence (Q9BY41 1-377): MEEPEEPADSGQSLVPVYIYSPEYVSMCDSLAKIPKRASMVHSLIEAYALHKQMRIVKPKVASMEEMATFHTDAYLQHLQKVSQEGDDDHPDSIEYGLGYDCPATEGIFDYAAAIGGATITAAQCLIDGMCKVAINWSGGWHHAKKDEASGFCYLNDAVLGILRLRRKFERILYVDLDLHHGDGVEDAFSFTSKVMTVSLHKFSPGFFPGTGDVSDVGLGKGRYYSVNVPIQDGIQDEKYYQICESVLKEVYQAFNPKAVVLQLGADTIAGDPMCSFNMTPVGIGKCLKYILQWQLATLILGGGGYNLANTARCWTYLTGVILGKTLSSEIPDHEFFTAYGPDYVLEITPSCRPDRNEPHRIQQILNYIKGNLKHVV

[6] = test system: HT29 cells; assay: Annexin V/PI flow cytometric analysis of apoptosis, HT29; type: cell-based, human; details: BMX, 48 hrs
Description: as §1

[7] = test system: GBM-R cells (U87MG-R and A172-R); assay: GBM-R cell viability time course (FIG. 2F); type: cell-based, human; details: BMX 10 μM alone, FIG. 2F (24, 48, and 72 hrs)
Description: (A) Chemical structure of BMX. (B) Cell viability of GBM and GBM-R cell lines after treatment with 0.5, 10, 15, 30, or 50 μM BMX. (C) Cell viability of GBM and GBM-R cell lines after treatment with 0.25, 50, 100, 200, 400, or 800 μM TMZ. (D) GBM and GBM-R cell viability after treatment with 10 μM BMX with or without TMZ at various concentrations (0.25, 50, 100, 200, 400, or 800 μM) for 24 hrs. (E) GBM and GBM-R cell viability after treatment with 50 μM TMZ with or without BMX at various concentrations (0.5, 10, 15, 30, or 50 μM) for 24 hrs. (F) GBM-R cell viability after treatment with 50 μM TMZ with or without 10 μM BMX for 24, 48, and 72 hrs. (G) Colony formation assay of GBM and GBM-R cell lines with BMX (0, 5, or 10 μM) with or without TMZ (50 μM) for 14 days. Data are represented as means±SEM from three experiments. *p<0.05 vs. control (A172 and U87MG); #p<0.05 vs. (A172-R and U87MG-R).
We plated 3000 GBM cells per well in 96-well plates and allowed them to adhere overnight. To validate cell line responsiveness to BMX and TMZ monotherapy, the cells were treated with different doses of BMX or TMZ for 24, 48, and 72 hrs. […] Following treatment, the absorption value was measured using a CCK8 kit (Targetmol, Shanghai, China) at the indicated time points. […]

[8] = test system: A172-R cells; assay: Flow cytometric analysis of the DNA cell cycle, A172-R; type: cell-based, human; details: 10 μM BMX alone, 48 hrs
Description: as §2

[9] = test system: HT29 cells; assay: Clonogenic (colony formation) assay, HT29; type: cell-based; details: Homo sapiens, HT-29, 336 h, 14 days, read-out: IC50 values of TMZ, clonogenic assay
Description: (§3) For the anchorage-dependent growth assay, 1000 cells were resuspended in the medium and seeded in 6-well plates. […] After 14 days, the media were removed and the cells were washed and fixed with 4% paraformaldehyde for 30 min, and stained with 0.1% crystal violet for 20 min at 25° C. The intensity of crystal violet was quantified by the absorbance of 570 nm after dissolving the stained cells with dimethyl sulfoxide (DMSO). The results are expressed as the average colony±SE from three independent experiments.

[10] = test system: HCT116 cells; assay: Clonogenic (colony formation) assay, HCT116; type: cell-based; details: Homo sapiens, HCT-116, 336 h, 14 days, read-out: IC50 values of TMZ, clonogenic assay
Description: as §3

SMILES | early apoptotic cells [1] | cells arrested in G0/G1 phase [2] | early apoptotic cells [3] | toxicity [4] | HDAC isoform selectivity [5] | early apoptotic cells [6] | cell viability (cytotoxic effect, fold) [7] | cells arrested in G0/G1 phase [8] | IC50 [9] | IC50 [10]
COc1ccc(COc2c(/C=C/C(=O)NO)ccc(OC)c2CC=C(C)C)cc1 [BMX, (E)-2-(4-Methoxybenzyloxy)-3-prenyl-4-methoxy-N-hydroxycinamide] | ≤ 59.18% | 77.95% | ≤ 49.34% | lowest toxicity | isoform-selective HDAC8 inhibitor | up to 23.78% | 0.88 × and 0.77 × and 0.63 × | 70.34% |  | 
Cn1nnc2c(C(N)=O)ncn2c1=O [TMZ, Temozolomide, reference compound] |  |  |  |  |  |  |  |  | 359 ± 50.4 µM | 138 ± 22.7 µM
